Tests used:
Assay type in all cases: in vivo
[1] = system: winter wheat; test: Yield upon winter wheat seed treatment (FIG. 6); details: statistical data for FIG. 6, yield
Excerpt: (§1) FIG. 6 is a graph showing the yield upon winter wheat seed treatment using a synergistic agricultural formula in accordance with the present invention including 14 wt. % DFU and 10 wt. % of Stollers STIMULATE YE Plant Growth Regulator Mix applied at a Pint/Acre compared to each individual component applied at a Pint/Acre;
(§2) The statistical data for this analysis is provided as follows: […]

[2] = system: corn; test: Yield upon corn seed treatment (FIG. 5); details: statistical data for FIG. 5, yield
Excerpt: as §1, with “5” for “6”, “corn” for “winter wheat”
as §2

[3] = system: corn; test: Yield in furrow corn treatment (FIG. 8); details: statistical data for FIG. 8, yield
Excerpt: FIG. 8 is a graph showing the yield in furrow corn treatment using a synergistic agricultural formula in accordance with the present invention including 7.5 wt. % DFU, 0.01 wt. % cytokinin, and 0.05 wt. % IAA applied at a Pint/Acre compared to each individual component applied at a Pint/Acre; and
as §2

[4] = system: corn; test: Yield, V3-V5 foliar corn treatment (FIG. 9); details: statistical data for FIG. 9, yield
Excerpt: FIG. 9 is a graph showing V3-V5 foliar corn treatment using a synergistic agricultural formula in accordance with the present invention including 7.5 wt. % DFU and 0.01 wt. % cytokinin applied at a Pint/Acre compared to each individual component applied at a Pint/Acre.
as §2

[5] = system: soybean; test: Yield upon soybean seed treatment (FIG. 7); details: statistical data for FIG. 7, yield
Excerpt: as §1, with “7” for “6”, “soybean” for “winter wheat”
as §2

O=CNC(=O)NC=O [15% DFU, N,N′-diformylurea]
p Vs Combination [1]: 0.0089
p Vs Control [1]: 0.0026
p Vs Combination [2]: 0.0442
p Vs Control [2]: 0.8782
p Vs Combination [3]: 0.0622
p Vs Control [3]: 0.5485
p Vs Combination [4]: 0.0677
p Vs Control [4]: 0.6829
p Vs Combination [5]: 0.052
p Vs Control [5]: 0.4492

— patent US20190008155A1, “Synergistic Agricultural Formula Comprising Diacyl or Diaryl Urea and At Least One Plant Growth Regulator” (Stoller Enterprises, Inc., priority 2017, published 2019)
